Reference: patent publication US5262521A (SRI International, priority 1991, dated 1993)
pIC50: −log10 of the molar value. Where a SMILES comes first, the peptide text is derived from it. Where no end group is shown, it is not given here. [ ]: non-standard residue; d: D form. The star is where a group is joined. Boc = CC(C)(C)OC(=O)*

Columns and labels:
[1] = biological target: atrial peptide-degrading enzyme (ADE); test: Inhibition of ADE activity (AcAPI production from 50 μM AcAPII, HPLC); assay type: biochemical, bovine; settings: Table 10
Description: The concentration of enzyme and AcAPII were chosen so that approximately 80% of the AcAPII was degraded in the absence of inhibitor. The production of AcAPI was determined by integration of the AcI peak, and percent inhibition by the inhibitors was calculated.
(e.) Enzyme Inhibitor Testing: To further characterize ADE, the extent of inhibition by several known peptidase inhibitors was determined.

[2] = test system: spontaneously hypertensive rats; test: Blood pressure and heart rate measurements in spontaneously hypertensive rats; assay type: in vivo, rat; set-up: Diastolic Blood Pressure, Mean Change From Control: unit not given here
Description: This experiment was carried out to evaluate the effects of an ADE inhibitor compound of the invention upon blood pressure (systolic and diastolic) and heart rate in spontaneously hypertensive rats ("SHR"). Twenty-eight male SHR, weighing 200-300 g at the initiation of study, having a systolic blood pressure of 160 mm Hg or higher, and obtained from Charles River Laboratories (Wilmington, Mass.), were tested over a nine-day period. The animal room environment and photoperiod were controlled (temperature approximately 22° C.±3° C., humidity of 40 to 70%, 12 h light, 12 h dark), as was diet.
The compounds to be administered (compound (V), above, and rat ANF ("rANF")) were dissolved in a 0.9% saline solution and administered intravenously. The test animals were divided into seven distinct groups for purposes of dose administration, as follows:
Group 1. Four SHR rats were infused with 100 pmole/minute of RANF (0.026 ml/minute) for 20 minutes.
Group 2. Four SHR rats were administered an i.v. bolus of 2 mg/kg of compound (V).
Group 3. Four SHR rats were administered an i.v. bolus of 10 mg/kg of compound (V).
Group 4. Four SHR rats were infused with 0.2 mg/kg/min of compound (V) (0.026 ml/minute) for 20 minutes.
Group 5. Four SHR rats were administered an i.v. bolus of 2 mg/kg of compound (V) and then infused with 100 pmole/minute of RANF (0.026 ml/minute for 20 minutes.
Group 6. Four SHR rats were administered an i.v. bolus of 10 mg/kg of compound (V) and then infused with 100 pmole/minute of RANF (0.026 ml/minute) for 20 minutes.
Group 7. Four SHR rats were infused with 0.2 mg/kg/min of compound (V) (0.026 ml/minute) for 20 minutes and then infused with 100 pmole/minute of RANF ([…]) for 20 minutes.
Blood pressure and heart rate determinations were made at 5 minute intervals for 20 minutes prior to dose and at 5 minute intervals for a minimum of 40 minutes following the initiation of test article administration or until a return to control values was realized. Blood pressure was measured continuously for one minute using a Statham P23Db pressure transducer (Statham Instruments, Hata Rey, Puerto Rico), and a Grass Model 7 Polygraph (Glass Instrument Company, Quincy, Mass.). Heart rate was measured using a Narco biotachometer BT-1200 (Narco Biosystems, Houston, Tex.).

[3] = test system: atrial peptide-degrading enzyme (ADE); test: Degradation of peptide substrates by atrial peptide-degrading enzyme preparation (HPLC); assay type: biochemical, bovine; settings: 50 μM substrate, 37° C.
Description: (c.) ADE Substrate and Inhibitor Studies: To study substrate selectivity of the atrial peptide-degrading enzyme, the pooled fractions from the Dynamax HPLC ion exchange, or Sephacryl S-200 columns, were incubated with 50 μM synthetic substrate and incubated at 37° C. for one or two hours. At the appropriate time, the samples were boiled, centrifuged and analyzed on the Vydac column as described above. The amount of substrate present after the incubation, as determined by integration of the HPLC peak, was compared with the initial substrate level.

[4] = test system: atrial peptide-degrading enzyme (ADE); test: pooled fractions from the Dynamax HPLC ion exchange, or Sephacryl S-200 columns (ADE isolated from bovine kidney cortex); settings: 37° C., up to two hours
[5] = (V) 20 min. infusion 0.2 mg/kg/min. i.v., interval 0 min
[6] = (V) 20 min. infusion 0.2 mg/kg/min. i.v., interval 5 min
[7] = (V) 20 min. infusion 0.2 mg/kg/min. i.v., interval 10 min
[8] = (V) 20 min. infusion 0.2 mg/kg/min. i.v., interval 15 min
[9] = (V) 20 min. infusion 0.2 mg/kg/min. i.v., interval 20 min
[10] = (V) 20 min. infusion 0.2 mg/kg/min. i.v., interval 25 min
[11] = (V) 20 min. infusion 0.2 mg/kg/min. i.v., interval 30 min
[12] = (V) 20 min. infusion 0.2 mg/kg/min. i.v., interval 35 min
[13] = (V) 20 min. infusion 0.2 mg/kg/min. i.v., interval 40 min
[14] = (V) bolus injection 2 mg/kg i.v., interval 0 min
[15] = (V) bolus injection 2 mg/kg i.v., interval 5 min
[16] = (V) bolus injection 2 mg/kg i.v., interval 10 min
[17] = (V) bolus injection 2 mg/kg i.v., interval 15 min
[18] = (V) bolus injection 2 mg/kg i.v., interval 20 min
[19] = (V) bolus injection 2 mg/kg i.v., interval 25 min
[20] = (V) bolus injection 2 mg/kg i.v., interval 30 min
[21] = (V) bolus injection 2 mg/kg i.v., interval 35 min
[22] = (V) bolus injection 2 mg/kg i.v., interval 40 min
[23] = (V) bolus injection 10 mg/kg i.v., interval 0 min
[24] = (V) bolus injection 10 mg/kg i.v., interval 5 min
[25] = (V) bolus injection 10 mg/kg i.v., interval 10 min
[26] = (V) bolus injection 10 mg/kg i.v., interval 15 min
[27] = (V) bolus injection 10 mg/kg i.v., interval 20 min
[28] = (V) bolus injection 10 mg/kg i.v., interval 25 min
[29] = (V) bolus injection 10 mg/kg i.v., interval 30 min
[30] = (V) bolus injection 10 mg/kg i.v., interval 35 min
[31] = (V) bolus injection 10 mg/kg i.v., interval 40 min
[32] = (V) bolus injections at 2 and 10 mg/kg
[33] = (V) infusion 0.2 mg/kg/minute for 20 minutes

## CC(C)C[C@H](NC(=O)[C@@H](N)CO)C(=O)N[C@@H](CCCNC(=N)N)C(=O)N[C@@H](CCCNC(=N)N)C(=O)N[C@@H](CO)C(=O)N[C@@H](CO)C(=O)N[C@H](C)C(=O)NCC(=O)N[C@H](C)C(=O)N[C@@H](CC(N)=O)C(=O)N[C@@H](CS)C(=O)N[C@H](Cc1ccccc1)C(=O)N[C@@H](CCCNC(=N)N)C(=O)N[C@@H](Cc1ccc(O)cc1)C(N)=O [(V), Ser-Leu-Arg-Arg-Ser-Ser-DAla-Gly-DAla-Asn-Cys-DPhe-Arg-Tyr-NH2] (H-SLRRSS[dA]G[dA]NC[dF]RY-NH2)
[1]
  pIC50: 4.84
[1]; 0.1 mM
  % Inhibition At 0.1 mM: 81%
[2]; [5]
  Diastolic Blood Pressure, Mean Change From Control: -4
  Systolic Blood Pressure, Mean Change From Control: -1
[2]; [6]
  Diastolic Blood Pressure, Mean Change From Control: -12
  Systolic Blood Pressure, Mean Change From Control: -10
[2]; [7]
  Diastolic Blood Pressure, Mean Change From Control: -15
  Systolic Blood Pressure, Mean Change From Control: -18
[2]; [8]
  Diastolic Blood Pressure, Mean Change From Control: -18
  Systolic Blood Pressure, Mean Change From Control: -16
[2]; [9]
  Diastolic Blood Pressure, Mean Change From Control: -20
  Systolic Blood Pressure, Mean Change From Control: -26
[2]; [10]
  Diastolic Blood Pressure, Mean Change From Control: -13
  Systolic Blood Pressure, Mean Change From Control: -16
[2]; [11]
  Diastolic Blood Pressure, Mean Change From Control: -14
  Systolic Blood Pressure, Mean Change From Control: -9
[2]; [12]
  Diastolic Blood Pressure, Mean Change From Control: 0
  Systolic Blood Pressure, Mean Change From Control: 0
[2]; [13]
  Diastolic Blood Pressure, Mean Change From Control: -2
  Systolic Blood Pressure, Mean Change From Control: +5
[2]; (V) bolus 2 mg/kg
  Duration of the blood pressure lowering following administration: 20 min
[2]; (V) bolus 10 mg/kg
  Duration of the blood pressure lowering following administration: 35 min
[2]; [14]
  Diastolic Blood Pressure, Mean Change From Control: -61
  Systolic Blood Pressure, Mean Change From Control: -80
[2]; [15]
  Diastolic Blood Pressure, Mean Change From Control: -40
  Systolic Blood Pressure, Mean Change From Control: -50
[2]; [16]
  Diastolic Blood Pressure, Mean Change From Control: -14
  Systolic Blood Pressure, Mean Change From Control: -30
[2]; [17]
  Diastolic Blood Pressure, Mean Change From Control: -8
  Systolic Blood Pressure, Mean Change From Control: -14
[2]; [18]
  Diastolic Blood Pressure, Mean Change From Control: -10
  Systolic Blood Pressure, Mean Change From Control: -13
[2]; [19]
  Diastolic Blood Pressure, Mean Change From Control: +1
  Systolic Blood Pressure, Mean Change From Control: -4
[2]; [20]
  Diastolic Blood Pressure, Mean Change From Control: +5
  Systolic Blood Pressure, Mean Change From Control: +1
[2]; [21]
  Diastolic Blood Pressure, Mean Change From Control: +7
  Systolic Blood Pressure, Mean Change From Control: +2
[2]; [22]
  Diastolic Blood Pressure, Mean Change From Control: 0
  Systolic Blood Pressure, Mean Change From Control: +4
[2]; [23]
  Diastolic Blood Pressure, Mean Change From Control: -66
  Systolic Blood Pressure, Mean Change From Control: -76
[2]; [24]
  Diastolic Blood Pressure, Mean Change From Control: -76
  Systolic Blood Pressure, Mean Change From Control: -119
[2]; [25]
  Diastolic Blood Pressure, Mean Change From Control: -61
  Systolic Blood Pressure, Mean Change From Control: -100
[2]; [26]
  Diastolic Blood Pressure, Mean Change From Control: -55
  Systolic Blood Pressure, Mean Change From Control: -84
[2]; [27]
  Diastolic Blood Pressure, Mean Change From Control: -35
  Systolic Blood Pressure, Mean Change From Control: -55
[2]; [28]
  Diastolic Blood Pressure, Mean Change From Control: -27
  Systolic Blood Pressure, Mean Change From Control: -41
[2]; [29]
  Diastolic Blood Pressure, Mean Change From Control: -17
  Systolic Blood Pressure, Mean Change From Control: -29
[2]; [30]
  Diastolic Blood Pressure, Mean Change From Control: -15
  Systolic Blood Pressure, Mean Change From Control: -21
[2]; [31]
  Diastolic Blood Pressure, Mean Change From Control: +10
  Systolic Blood Pressure, Mean Change From Control: +9
[2]; [32]
  Effect on systolic and diastolic blood pressure, in words: Dose-related decreases in systolic and diastolic blood pressure
  Effect upon heart rate: No effects upon heart rate
[2]; [33]
  Duration of blood pressure decrease following the conclusion of the dose: 10 min
  Effect on systolic and diastolic blood pressure, in words: minimal decreases in systolic and diastolic blood pressure
  Effect upon heart rate: No effects upon heart rate

## COC(=O)[C@H](Cc1ccccc1)NC(=O)[C@H](CO)NC(=O)[C@H](CC(N)=O)NC(=O)OC(C)(C)C [Boc--Asn--Ser--Phe--OCH3] (Boc-Asn-Ser-Phe-OMe)
[3]; one or two hours
  % Degraded (small peptides): 0%

## CC(C)C[C@H](NC(=O)CNC(=O)[C@H](Cc1ccc(O)cc1)NC(=O)[C@H](CO)NC(=O)[C@H](Cc1c[nH]c2ccccc12)NC(=O)[C@H](Cc1c[nH]cn1)NC(=O)[C@@H]1CCC(=O)N1)C(=O)N[C@@H](CCCNC(=N)N)C(=O)N1CCC[C@H]1C(=O)NCC(N)=O [LHRH, pGlu--His--Trp--Ser--Tyr--Gly--Leu--Arg--Pro--Gly-NH2]
[3]
  % Degraded 1 h: 0%

## ANF: atrial natriuretic factor, carboxy terminal 28 amino acid fragment of α-ANF
[3]
  % Degraded 1 h: > 95%

## API: rat atriopeptin I, atrial peptide prepared by solid phase synthesis (SSCFGGRIDRIGAQSGLGCNS; ends and bridges not checked; cysteine pairing not given here; UniProt P01161 127-147, looked up)
[3]
  % Degraded 1 h: 0%
[3]; 2 h
  % Degraded 2 h: 0%

## Asn--Ser--Phe--Arg--Tyr
[4]
  not cleaved: 8% degraded

## Boc-Asn-Ser-Phe-OMe
[4]
  not cleaved: 0% degraded

## DVNTDRPG
[4]
  not cleaved: 4% degraded at 1 h, 6% degraded at 2 h

## Hip--Ser--Phe--Arg
[4]
  not cleaved: 0% degraded

## LYKKIIKKLLES
[4]
  not cleaved: 0% degraded at 2 h

## pGlu--His--Trp--Ser--Tyr--Gly--Leu--Arg--Pro--Gly-NH2
[4]
  not cleaved: 0% degraded at 1 h
